Experimental data as given in patent US20130040845A1, “METHOD FOR SCREENING RECEPTORS/LIGANDS INTERACTIONS” (IMMUNE DISEASE INSTITUTE, INC., priority 2010, published 2013).
pKd: −log10 of the molar value.

Columns and labels:
[1] = molecular target: T1, RARα receptor (Homo sapiens, UniProt P10276); conditions: cited from earlier work
T1 sequence (P10276 1-462): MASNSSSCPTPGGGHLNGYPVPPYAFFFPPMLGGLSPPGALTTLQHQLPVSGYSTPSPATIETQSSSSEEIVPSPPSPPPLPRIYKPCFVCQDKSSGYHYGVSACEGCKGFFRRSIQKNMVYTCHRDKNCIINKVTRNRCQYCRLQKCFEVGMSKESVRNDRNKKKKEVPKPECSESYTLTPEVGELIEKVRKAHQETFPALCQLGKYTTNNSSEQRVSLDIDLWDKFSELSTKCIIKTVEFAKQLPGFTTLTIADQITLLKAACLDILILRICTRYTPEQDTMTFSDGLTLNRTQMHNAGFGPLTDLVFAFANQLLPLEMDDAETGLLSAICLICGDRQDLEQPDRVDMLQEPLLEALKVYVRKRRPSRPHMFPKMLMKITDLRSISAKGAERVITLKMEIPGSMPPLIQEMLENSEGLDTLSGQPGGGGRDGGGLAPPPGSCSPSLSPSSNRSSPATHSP

[2] = molecular target: T2, RARβ receptor (Homo sapiens, UniProt P10826); conditions: cited from earlier work
T2 sequence (P10826 1-455): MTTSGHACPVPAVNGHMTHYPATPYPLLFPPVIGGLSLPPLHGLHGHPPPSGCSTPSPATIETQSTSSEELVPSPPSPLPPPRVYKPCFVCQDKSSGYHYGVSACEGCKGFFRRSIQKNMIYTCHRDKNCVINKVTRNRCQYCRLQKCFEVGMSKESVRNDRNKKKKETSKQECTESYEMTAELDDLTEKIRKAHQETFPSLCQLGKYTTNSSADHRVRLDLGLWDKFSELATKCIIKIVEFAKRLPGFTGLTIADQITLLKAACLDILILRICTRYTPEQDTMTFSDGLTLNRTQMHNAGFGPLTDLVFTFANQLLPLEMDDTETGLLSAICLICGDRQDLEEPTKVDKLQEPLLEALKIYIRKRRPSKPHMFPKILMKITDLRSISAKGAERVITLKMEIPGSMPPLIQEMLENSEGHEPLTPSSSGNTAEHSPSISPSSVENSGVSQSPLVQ

[3] = molecular target: T3, RARγ receptor (Homo sapiens, UniProt P13631); conditions: cited from earlier work
T3 sequence (P13631 1-454): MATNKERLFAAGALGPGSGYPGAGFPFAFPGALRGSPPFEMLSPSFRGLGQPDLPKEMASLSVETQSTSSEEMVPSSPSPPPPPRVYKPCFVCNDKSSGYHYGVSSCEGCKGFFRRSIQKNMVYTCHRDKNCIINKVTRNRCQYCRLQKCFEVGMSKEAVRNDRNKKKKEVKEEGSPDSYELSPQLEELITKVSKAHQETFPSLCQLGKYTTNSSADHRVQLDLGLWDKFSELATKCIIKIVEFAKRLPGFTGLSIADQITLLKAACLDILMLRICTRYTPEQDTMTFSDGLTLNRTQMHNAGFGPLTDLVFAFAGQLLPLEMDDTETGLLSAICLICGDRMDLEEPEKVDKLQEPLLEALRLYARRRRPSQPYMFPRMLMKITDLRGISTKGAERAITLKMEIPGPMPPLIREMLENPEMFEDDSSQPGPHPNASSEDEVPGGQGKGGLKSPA

[4] = molecular target: T4, VWF A1 domain/GPIbα interaction (Homo sapiens, UniProt P04275+P07359); experiment: Single-molecule optical tweezer force-extension (pulling) assay on covalently tethered A1-GPIbα chimeric fusion polypeptide; assay type: binding; conditions: presence vs absence of activator, fixed pulling rate (FIG. 5D-5F)
T4 construct: human VWF A1 domain (Ile1262 to Pro1466 with pre-pro-VWF numbering); human platelet GPIbα (His1 to Arg290) were PCR-amplified; made in house; host or cells: HEK293T
T4 sequence (P04275 1262-1466): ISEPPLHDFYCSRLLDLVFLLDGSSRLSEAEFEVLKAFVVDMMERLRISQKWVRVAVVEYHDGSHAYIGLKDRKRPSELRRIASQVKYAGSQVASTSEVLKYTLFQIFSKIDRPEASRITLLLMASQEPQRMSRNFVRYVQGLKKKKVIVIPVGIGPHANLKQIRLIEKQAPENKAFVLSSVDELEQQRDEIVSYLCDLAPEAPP
T4 sequence (P07359 17-306): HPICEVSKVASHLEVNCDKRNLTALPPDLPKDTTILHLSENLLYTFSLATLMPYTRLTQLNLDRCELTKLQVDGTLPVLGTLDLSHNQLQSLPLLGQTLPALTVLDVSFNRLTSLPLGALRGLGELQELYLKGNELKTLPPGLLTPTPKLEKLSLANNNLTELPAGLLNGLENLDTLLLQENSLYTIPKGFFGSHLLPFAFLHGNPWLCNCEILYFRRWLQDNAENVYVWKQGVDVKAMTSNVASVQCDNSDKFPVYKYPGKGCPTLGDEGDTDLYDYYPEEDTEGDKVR
Text: In the example described herein, the inventors tethered this single polypeptide to the solid surfaces of two different microspheres using double-stranded DNA (dsDNA) handles. One end of the chimeric polypeptide was tethered to a first dsDNA handle and the other end of the polypeptide was tethered to a second dsDNA handle. The polypeptide was coupled to the dsDNA handles via S—S-bond or disulfide bridges. The free ends of the dsDNA were then linked to digoxigenin or biotin (see FIGS. 3A, 4B & 4C, 10). The dsDNA coupled A1/GPIbα polypeptide was then mixed with beads that were coated with either anti-digoxigenin or streptavidin. The inventors then manipulated the beads with a pipette and a focus laser beam from an optical tweezer to stretch out or extend the A1/GPIbα polypeptide in order to study the minute forces, in pico Newtons (pN), required to dissociate the VWF A1 domain/GPIbα interaction. […] In addition, the inventors measured the extensions of the VWF A1 domain/GPIbα polypeptide that are required to keep the extension force constant. […]
In the example, the inventors monitored the forces applied to the A1/GPIbα polypeptide that is required to extend or stretch out the polypeptide from a ligand-bound state to a ligand-unbonud state with an optical tweezer (see FIG. 8 for the ligand bound and non-ligand bound state of the A1/GPIbα polypeptide). […]

| Molecule | pKd [1] | pKd [2] | pKd [3] | average dissociative/unbinding force for the A1/GPIbα interaction [4] |
| --- | --- | --- | --- | --- |
| O=C(O)c1ccc(-c2ccc3cc(O)c(C45CC6CC(CC(C6)C4)C5)cc3c2)cc1 [CD 1530, 4-(6-Hydroxy-7-tricyclo[3.3.1.13,7]dec-1-yl-2-naphthalenyl) benzoic acid] | 5.56 | 5.82 | 6.82 | – |
| ristocetin | – | – | – | increased the average dissociative/unbinding force |
| botrocetin | – | – | – | increased the average dissociative/unbinding force |
